The results in this text go back to US20220400676A1, “HERBICIDAL COMPOUNDS” (SYNGENTA CROP PROTECTION AG, priority 2019, published 2022).

The subject of test [1] is ZEAMX. The experiment in a line: Comparative Test (Post-Emergence), crop. In kind it is in vivo, corn.
In test [2] the test system is AMARE. The experiment in a line: Comparative Test (Post-Emergence), weed. The format is in vivo, Amaranthus retoflexus. How it is done: (§1) Seeds of a variety of test species are sown in standard soil in pots Amaranthus retoflexus (AMARE), Echinochloa crus-galli (ECHCG), Setaria faberi (SETFA)). After cultivation for one day (pre-emergence) or after 8 days cultivation (post-emergence) under controlled conditions in a glasshouse (at 24/16° C., day/night; 14 hours light; 65% humidity), the plants are sprayed with an aqueous spray solution derived from the formulation of the technical active ingredient in acetone/water (50:50) solution containing 0.5% Tween 20 (polyoxyethelyene sorbitan monolaurate, CAS RN 9005-64-5). Compounds are applied at 250 g/ha unless otherwise stated. The test plants are then grown in a glasshouse under controlled conditions in a glasshouse (at 24/16° C., day/night; 14 hours light; 65% humidity) and watered twice daily. After 13 days for pre- and post-emergence, the test is evaluated for the percentage damage caused to the plant. The biological activities are shown in the following table on a five-point scale (5=81-100%; 4=61-80%; 3=41-60%; 2=21-40%; 1=0-20%).

The subject of test [3] is Setaria faberi (SETFA). The test is described as follows: Post-emergence herbicidal glasshouse test. The format is in vivo. The settings on record: 250 g/ha, evaluated after 13 days. How it is done: as §1
In test [4] the test system is Amaranthus retoflexus (AMARE). The experiment in a line: Post-emergence herbicidal glasshouse test. The settings on record: 250 g/ha, evaluated after 13 days. The format is in vivo. How it is done:
as §1

The subject of test [5] is Echinochloa crus-galli (ECHCG). The test is described as follows: Post-emergence herbicidal glasshouse test. In kind it is in vivo. The settings on record: 250 g/ha, evaluated after 13 days. How it is done: as §1
The subject of test [6] is Setaria faberi (SETFA). The experiment in a line: Pre-emergence herbicidal glasshouse test. In kind it is in vivo. To be noted: 250 g/ha, evaluated after 13 days. How it is done: as §1
In test [7] the test system is Amaranthus retoflexus (AMARE). The test is described as follows: Pre-emergence herbicidal glasshouse test. In kind it is in vivo. To be noted: 250 g/ha, evaluated after 13 days. On the procedure:
as §1

Test [8] has as its system Echinochloa crus-galli (ECHCG). The experiment in a line: Pre-emergence herbicidal glasshouse test. The format is in vivo. The settings on record: 250 g/ha, evaluated after 13 days. How it is done:
as §1

In the case of `COc1ccnc(Oc2cccc(F)c2-c2cc(C(F)F)no2)n1`, the “% Phytotoxicity ZEAMX” value came to 0% in test [1] (rate 16 g/ha), 10% in test [1] (rate 63 g/ha) and 20% in test [1] (rate 250 g/ha). For the same compound, the “% Phytotoxicity AMARE” value in test [2] (rate 16 g/ha) turned out to be 0%; in test [2] (rate 63 g/ha), 10%; in test [2] (rate 250 g/ha), 20%.

Take `COc1cc(OC)nc(Oc2cccc(F)c2-c2cc(C(F)F)no2)n1`: the “% Phytotoxicity ZEAMX” value in test [1] (rate 16 g/ha), in test [1] (rate 33 g/ha) and in test [1] (rate 250 g/ha) was 0% throughout. In addition, the “% Phytotoxicity AMARE” value in test [2] (rate 16 g/ha), in test [2] (rate 33 g/ha) and in test [2] (rate 250 g/ha) was 0% in each case.

With `CNc1ncnc(Oc2cccc(F)c2-c2cc(C(F)F)no2)c1Cl` [Compound 2.002], the “percentage damage caused to the plant, five-point scale, SETFA” value (from here on “percentage damage caused … SETFA”) in test [3] and in test [6] was 1 (1=0-20%) throughout. In addition, the “percentage damage caused to the plant, five-point scale, AMARE” value (from here on “percentage damage caused … AMARE”) in test [4] and in test [7] was 2 (2=21-40%) each time. Besides, the “percentage damage caused to the plant, five-point scale, ECHCG” value (from here on “percentage damage caused … ECHCG”) in test [5] and in test [8] was 1 (1=0-20%) in each case.

As for `COc1cc(Oc2cccc(Br)c2-c2cc(C(F)F)no2)ncn1` [Compound 2.003], the results for the “percentage damage caused … SETFA” value in test [3] and in test [6] were 4 (4=61-80%) and 5 (5=81-100%), respectively. Further, the “percentage damage caused … AMARE” value is 3 (3=41-60%) in test [4] and 5 (5=81-100%) in test [7]. The figures for the “percentage damage caused … ECHCG” value in test [5] and in test [8] were 4 (4=61-80%) and 5 (5=81-100%), respectively.

`COc1cc(Oc2cccc(Cl)c2-c2cc(C(F)F)no2)ncn1` [Compound 2.004]: the “percentage damage caused … SETFA” value in test [3] is 4 (4=61-80%); in test [6], 5 (5=81-100%). In addition, the “percentage damage caused … AMARE” value in test [4] is 4 (4=61-80%); in test [7], 5 (5=81-100%). Moreover, the “percentage damage caused … ECHCG” value in test [5] was 4 (4=61-80%); in test [8], 5 (5=81-100%).

Consider `CNc1cc(Oc2cccc(F)c2-c2cc(C(F)F)no2)ncn1` [Compound 2.005], for which the “percentage damage caused … SETFA” value in test [3] and in test [6] was 2 (2=21-40%) each time. For the same compound, the “percentage damage caused … AMARE” value in test [4] and in test [7] was 2 (2=21-40%) in each case. Also, the “percentage damage caused … ECHCG” value in test [5] and in test [8] was 2 (2=21-40%) in each case.

Regarding `Cc1cc(Oc2cccc(Br)c2-c2cc(C(F)F)no2)ncn1` [Compound 2.006], the “percentage damage caused … SETFA” value is given as 3 (3=41-60%) in test [3] and 4 (4=61-80%) in test [6]. Also, the “percentage damage caused … AMARE” value in test [4] is recorded as 1 (1=0-20%); in test [7], 2 (2=21-40%). In addition, the figures for the “percentage damage caused … ECHCG” value in test [5] and in test [8] were 3 (3=41-60%) and 5 (5=81-100%), respectively.

For the compound `Cc1cc(Oc2cccc(Cl)c2-c2cc(C(F)F)no2)ncn1` [Compound 2.007], the “percentage damage caused … SETFA” value was 4 (4=61-80%) in test [3] and 5 (5=81-100%) in test [6]. The “percentage damage caused … AMARE” value in test [4] is on record as 2 (2=21-40%); in test [7] it was 4 (4=61-80%). The “percentage damage caused … ECHCG” value in test [5] is 4 (4=61-80%); in test [8] it was 5 (5=81-100%).

As to `Cc1ncnc(Oc2cccc(F)c2-c2cc(C(F)F)co2)c1F` [Compound 2.008], the “percentage damage caused … SETFA” value in test [3] is listed as 1 (1=0-20%); in test [6] it was 4 (4=61-80%). Also, the “percentage damage caused … AMARE” value in test [4] is listed as 3 (3=41-60%); in test [7] it was 4 (4=61-80%). Besides, the “percentage damage caused … ECHCG” value was 1 (1=0-20%) in test [5] and 4 (4=61-80%) in test [8].

For `COc1cc(Oc2cccc(F)c2-c2cc(C(F)F)no2)ncn1` [Compound 2.017, 3-(difluoromethyl)-5-[2-fluoro-6-(6-methoxypyrimidin-4-yl)oxy-phenyl]isoxazole], the entries for the “percentage damage caused … SETFA” value in test [3] and in test [6] were 4 (4=61-80%) and 5 (5=81-100%), respectively. Further, the “percentage damage caused … AMARE” value in test [4] is on record as 4 (4=61-80%); in test [7], 5 (5=81-100%). In addition, the figures for the “percentage damage caused … ECHCG” value in test [5] and in test [8] were 4 (4=61-80%) and 5 (5=81-100%), respectively.

In the case of `COc1cc(Oc2cccc(F)c2-c2cc(C(F)F)no2)ncn1` [drawing 58], the “% Phytotoxicity ZEAMX” value in test [1] (rate 16 g/ha) amounted to 0%; in test [1] (rate 63 g/ha), 10%; in test [1] (rate 250 g/ha) it was 10%. The “% Phytotoxicity AMARE” value came out at 60% in test [2] (rate 16 g/ha), 60% in test [2] (rate 63 g/ha) and 80% in test [2] (rate 250 g/ha).
